Drawing on patent US12378224B2 (Dong-A Socio Holdings Co., Ltd., priority 2016, dated 2025), this text covers IC50 for 32 compounds.

The target of the experiment is human MER (528-end) (Homo sapiens (Human), UniProt Q12866). As to the kind of experiment: HTRF Kinase Activity Biochemical Assay (KinEASE-TK). The note with it: 10 uM ATP. Put shortly: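 Recombinant human MER (528-end) phosphorylated biotin-TK peptide substrate, 1 h at room temperature. Reaction stopped with detection buffer containing 0.375 nM Eu3+-cryptate anti-TK antibody and 0.062 uM streptavidin-XL665, 1 h further. Activity taken as HTRF ratio 665/620 nm ×10,000, 340 nm excitation.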
human MER (528-end), sequence (Q12866 528-999 limits assumed): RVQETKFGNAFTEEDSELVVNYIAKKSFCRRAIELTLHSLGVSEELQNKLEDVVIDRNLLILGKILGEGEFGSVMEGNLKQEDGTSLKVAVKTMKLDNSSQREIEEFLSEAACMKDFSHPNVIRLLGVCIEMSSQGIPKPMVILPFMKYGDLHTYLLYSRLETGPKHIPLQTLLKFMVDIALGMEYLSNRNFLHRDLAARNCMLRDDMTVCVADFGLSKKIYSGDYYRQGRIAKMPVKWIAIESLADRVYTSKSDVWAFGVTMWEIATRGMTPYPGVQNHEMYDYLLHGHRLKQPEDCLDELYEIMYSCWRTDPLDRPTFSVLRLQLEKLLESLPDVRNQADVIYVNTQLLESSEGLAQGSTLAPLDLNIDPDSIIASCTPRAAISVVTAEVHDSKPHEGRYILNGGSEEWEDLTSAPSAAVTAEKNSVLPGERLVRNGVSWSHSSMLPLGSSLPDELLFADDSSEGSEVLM

SMILES strings stand for the structures.

`CC1(C)[C@H]2CC=C(CN3CC[C@@H](NC(=O)c4cc(-c5cnn(C6CCNCC6)c5)cnc4N)C3)[C@@H]1C2` [Example 170, 2-amino-N—((R)-1-(((1R,5S)-6,6-dimethylbicyclo[3.1.1]hept-2-en-2-yl)methyl)pyrrolidin-3-yl)-5-(1-(piperidin-4-yl)-1H-pyrazol-4-yl)nicotinamide]: the IC50 was > 1000 nM. `Cn1cc(-c2cnc(N)c(C(=O)N[C@@H]3CCN(Cc4ccccc4)C3)c2)cn1` [Example 205, (R)-2-amino-N-(1-benzylpyrrolidin-3-yl)-5-(1-methyl-1H-pyrazol-4-yl)nicotinamide]: the concentration for half-maximal inhibition (IC50) is > 1000 nM. The value for `Cn1cc(-c2cnc(N)c(C(=O)N[C@H]3CCN(Cc4ccccc4)C3)c2)cn1` [Example 207, (S)-2-amino-N-(1-benzylpyrrolidin-3-yl)-5-(1-methyl-1H-pyrazol-4-yl)nicotinamide] was > 1000 nM; that for `Cn1cc(-c2cnc(N)c(C(=O)N[C@@H]3CCN(Cc4ccccc4Cl)C3)c2)cn1` [Example 208, (R)-2-amino-N-(1-(2-chlorobenzyl)pyrrolidin-3-yl)-5-(1-methyl-1H-pyrazol-4-yl)nicotinamide] was 100 to 1000 nM; that for `COc1cccc(CN2CC[C@@H](NC(=O)c3cc(-c4cnn(C)c4)cnc3N)C2)c1` [Example 209, (R)-2-amino-N-(1-(3-methoxybenzyl)pyrrolidin-3-yl)-5-(1-methyl-1H-pyrazol-4-yl)nicotinamide] was > 1000 nM. As to `Cn1cc(-c2cnc(N)c(C(=O)N[C@@H]3CCN(Cc4ccc(Cl)cc4)C3)c2)cn1` [Example 210, (R)-2-amino-N-(1-(4-chlorobenzyl)pyrrolidin-3-yl)-5-(1-methyl-1H-pyrazol-4-yl)nicotinamide], the IC50 was 100 to 1000 nM.

Take `CCc1ccc(CN2CC[C@@H](NC(=O)c3cc(-c4cnn(C)c4)cnc3N)C2)cc1` [Example 211, (R)-2-amino-N-(1-(4-ethylbenzyl)pyrrolidin-3-yl)-5-(1-methyl-1H-pyrazol-4-yl)nicotinamide]: the IC50 was > 1000 nM.

For `CC(C)c1ccc(CN2CC[C@@H](NC(=O)c3cc(-c4cnn(C)c4)cnc3N)C2)cc1` [Example 212, (R)-2-amino-N-(1-(4-isopropylbenzyl)pyrrolidin-3-yl)-5-(1-methyl-1H-pyrazol-4-yl)nicotinamide], the 50% inhibitory concentration (IC50) is > 1000 nM.

Regarding `Cn1cc(-c2cnc(N)c(C(=O)N[C@@H]3CCN(Cc4ccc(Cl)c(Cl)c4)C3)c2)cn1` [Example 213, (R)-2-amino-N-(1-(3,4-dichlorobenzyl)pyrrolidin-3-yl)-5-(1-methyl-1H-pyrazol-4-yl)nicotinamide], the half-inhibitory concentration (IC50) was > 1000 nM. Take `Cc1ccc(CN2CC[C@@H](NC(=O)c3cc(-c4cnn(C)c4)cnc3N)C2)cc1C` [Example 214, (R)-2-amino-N-(1-(3,4-dimethylbenzyl)pyrrolidin-3-yl)-5-(1-methyl-1H-pyrazol-4-yl)nicotinamide]: the IC50 was > 1000 nM. The same measure for `COc1cc(CN2CC[C@@H](NC(=O)c3cc(-c4cnn(C)c4)cnc3N)C2)cc(OC)c1` [Example 216, (R)-2-amino-N-(1-(3,5-dimethoxybenzyl)pyrrolidin-3-yl)-5-(1-methyl-1H-pyrazol-4-yl)nicotinamide]: > 1000 nM; for `COc1ccc(OC)c(CN2CC[C@@H](NC(=O)c3cc(-c4cnn(C)c4)cnc3N)C2)c1` [Example 218, (R)-2-amino-N-(1-(2,5-dimethoxybenzyl)pyrrolidin-3-yl)-5-(1-methyl-1H-pyrazol-4-yl)nicotinamide]: > 1000 nM; for `COc1ccc(O)c(CN2CC[C@@H](NC(=O)c3cc(-c4cnn(C)c4)cnc3N)C2)c1` [Example 219, (R)-2-amino-N-(1-(2-hydroxy-5-methoxybenzyl)pyrrolidin-3-yl)-5-(1-methyl-1H-pyrazol-4-yl)nicotinamide]: > 1000 nM. The value for `COc1ccc(CN2CC[C@@H](NC(=O)c3cc(-c4cnn(C)c4)cnc3N)C2)c(OC)c1` [Example 220, (R)-2-amino-N-(1-(2,4-dimethoxybenzyl)pyrrolidin-3-yl)-5-(1-methyl-1H-pyrazol-4-yl)nicotinamide] was > 1000 nM; that for `Cn1cc(-c2cnc(N)c(C(=O)N[C@@H]3CCN(Cc4cc(Cl)cc(Cl)c4)C3)c2)cn1` [Example 224, (R)-2-amino-N-(1-(3,5-dichlorobenzyl)pyrrolidin-3-yl)-5-(1-methyl-1H-pyrazol-4-yl)nicotinamide] was > 1000 nM. `Cn1cc(-c2cnc(N)c(C(=O)N[C@@H]3CCN(Cc4ccccc4-c4ccccc4)C3)c2)cn1` [Example 225, (R)—N-(1-([1,1′-biphenyl]-2-ylmethyl)pyrrolidin-3-yl)-2-amino-5-(1-methyl-1H-pyrazol-4-yl)nicotinamide] came in with a half-inhibitory concentration (IC50) of 100 to 1000 nM. Take `Cn1cc(-c2cnc(N)c(C(=O)N[C@@H]3CCN(Cc4ccc(-c5ccccc5)cc4)C3)c2)cn1` [Example 226, (R)—N-(1-([1,1′-biphenyl]-4-ylmethyl)pyrrolidin-3-yl)-2-amino-5-(1-methyl-1H-pyrazol-4-yl)nicotinamide]: the IC50 was > 1000 nM. The value for `Cn1cc(-c2cnc(N)c(C(=O)N[C@@H]3CCN(CCCc4ccccc4)C3)c2)cn1` [Example 227, (R)-2-amino-5-(1-methyl-1H-pyrazol-4-yl)-N-(1-(3-phenylpropyl)pyrrolidin-3-yl)nicotinamide] was > 1000 nM. With `Cn1cc(-c2cnc(N)c(C(=O)N[C@@H]3CCN(CC=Cc4ccccc4)C3)c2)cn1` [Example 228, (R)-2-amino-N-(1-cinnamylpyrrolidin-3-yl)-5-(1-methyl-1H-pyrazol-4-yl)nicotinamide], the half-maximal inhibitory concentration (IC50) fell in the range of 100 to 1000 nM. The value for `Cn1cc(-c2cnc(N)c(C(=O)N[C@@H]3CCN(CCOCc4ccccc4)C3)c2)cn1` [Example 229, (R)-2-amino-N-(1-(2-(benzyloxy)ethyl)pyrrolidin-3-yl)-5-(1-methyl-1H-pyrazol-4-yl)nicotinamide] was > 1000 nM; that for `Cn1cc(-c2cnc(N)c(C(=O)N[C@@H]3CCN(CCc4ccccc4)C3)c2)cn1` [Example 230, (R)-2-amino-5-(1-methyl-1H-pyrazol-4-yl)-N-(1-phenethylpyrrolidin-3-yl)nicotinamide] was > 1000 nM; that for `Cn1cc(-c2cnc(N)c(C(=O)N[C@@H]3CCN(Cc4cccc(Br)c4)C3)c2)cn1` [Example 231, (R)-2-amino-N-(1-(3-bromobenzyl)pyrrolidin-3-yl)-5-(1-methyl-1H-pyrazol-4-yl)nicotinamide] was > 1000 nM. The value for `Cn1cc(-c2cnc(N)c(C(=O)N[C@@H]3CCN(Cc4ccccc4Br)C3)c2)cn1` [Example 232, (R)-2-amino-N-(1-(2-bromobenzyl)pyrrolidin-3-yl)-5-(1-methyl-1H-pyrazol-4-yl)nicotinamide] was 100 to 1000 nM; that for `Cn1cc(-c2cnc(N)c(C(=O)N[C@@H]3CCN(Cc4ccc(F)c(Br)c4)C3)c2)cn1` [Example 233, (R)-2-amino-N-(1-(3-bromo-4-fluorobenzyl)pyrrolidin-3-yl)-5-(1-methyl-1H-pyrazol-4-yl)nicotinamide] was > 1000 nM; that for `Nc1ncc(-c2ccc(CO)cc2)cc1C(=O)N[C@@H]1CCN(Cc2ccc(Cl)cc2)C1` [Example 237, (R)-2-amino-N-(1-(4-chlorobenzyl)pyrrolidin-3-yl)-5-(4-(hydroxymethyl)phenyl)nicotinamide] was 100 to 1000 nM.

Compound `Cn1cc(-c2cnc(N)c(C(=O)N[C@@H]3CCN(Cc4cccc(-c5cccc(CO)c5)c4)C3)c2)cn1` [Example 243, (R)-2-amino-N-(1-((3′-(hydroxymethyl)-[1,1′-biphenyl]-3-yl)methyl)pyrrolidin-3-yl)-5-(1-methyl-1H-pyrazol-4-yl)nicotinamide] had an IC50 of 100 to 1000 nM. The value for `Cn1cc(-c2cnc(N)c(C(=O)N[C@@H]3CCN(Cc4cccc(-c5ccc(CO)cc5)c4)C3)c2)cn1` [Example 244, (R)-2-amino-N-(1-((4′-(hydroxymethyl)-[1,1′-biphenyl]-3-yl)methyl)pyrrolidin-3-yl)-5-(1-methyl-1H-pyrazol-4-yl)nicotinamide] was 100 to 1000 nM; that for `CN1CCN(Cc2cccc(-c3cccc(CN4CC[C@@H](NC(=O)c5cc(-c6cnn(C)c6)cnc5N)C4)c3)c2)CC1` [Example 245, (R)-2-amino-5-(1-methyl-1H-pyrazol-4-yl)-N-(1-((3′-((4-methylpiperazin-1-yl)methyl)-[1,1′-biphenyl]-3-yl)methyl)pyrrolidin-3-yl)nicotinamide] was > 1000 nM. The same measure for `CN1CCN(Cc2ccc(-c3cccc(CN4CC[C@@H](NC(=O)c5cc(-c6cnn(C)c6)cnc5N)C4)c3)cc2)CC1` [Example 246, (R)-2-amino-5-(1-methyl-1H-pyrazol-4-yl)-N-(1-((4′-((4-methylpiperazin-1-yl)methyl)-[1,1′-biphenyl]-3-yl)methyl)pyrrolidin-3-yl)nicotinamide]: > 1000 nM; for `Cn1cc(-c2cnc(N)c(C(=O)N[C@@H]3CCN(Cc4ccc(F)c(-c5cccc(CO)c5)c4)C3)c2)cn1` [Example 250, (R)-2-amino-N-(1-((6-fluoro-3′-(hydroxymethyl)-[1,1′-biphenyl]-3-yl)methyl)pyrrolidin-3-yl)-5-(1-methyl-1H-pyrazol-4-yl)nicotinamide]: 100 to 1000 nM.

`Cn1cc(-c2cnc(N)c(C(=O)N[C@@H]3CCN(C(=O)Nc4cccc(-c5cccc(CN)c5)c4)C3)c2)cn1` [Example 254, (R)-2-amino-N-(1-((3′-(aminomethyl)-[1,1′-biphenyl]-3-yl)carbamoyl)pyrrolidin-3-yl)-5-(1-methyl-1H-pyrazol-4-yl)nicotinamide]: the IC50 lay within 10 to 100 nM. The same measure for `Cn1cc(-c2cnc(N)c(C(=O)N[C@@H]3CCN(C(=O)Nc4cccc(-c5ccc(CN)cc5)c4)C3)c2)cn1` [Example 255, (R)-2-amino-N-(1-((4′-(aminomethyl)-[1,1′-biphenyl]-3-yl)carbamoyl)pyrrolidin-3-yl)-5-(1-methyl-1H-pyrazol-4-yl)nicotinamide]: 100 to 1000 nM.
